In brackets after ≈: the same amount, converted by molar mass. Like-named read-outs stand apart in the source and are kept apart here. Residues, ends and D or L forms follow the SMILES beside them.
Columns and labels:
E. coli = assay type: cell-based, Escherichia coli; conditions: E.coli TEM104, Suppl. Figure 5
Experimental: For the analysis of synergy between the peptides and other antibiotics, a checkerboard assay was performed. Based on the MICs of the selected peptides, a checkerboard assay was designed to define their FICIs (Fractional Inhibitory Concentration Index) in combinations against different clinical isolates[53],[54]. Briefly, a total volume of 100 μL of Mueller–Hinton broth was distributed into each well of the 96-well plates. The first compound (peptide) of the combination was serially diluted vertically (128, 64, 32, 16, 8, 4, 2, 0 μg/mL) while the other drug (Beta-lactam or Kanamycin) was diluted horizontally in a 96-well plate (from 3200 to 3 μg/ mL). The total volume of each microtiter well was inoculated with 100 μL of MHB containing 1 × 10^6 CFU/mL bacteria. The plates were incubated at 37 °C for 24 h under aerobic conditions without shaking. Calculation of the FICI is used to analyze the results of the checkerboard assay by estimating the degree of synergistic effect. FICI is calculated as the sum of the individual fractional inhibitory concentrations (FICs) for each drug (where MIC A and MIC B denote the MIC of each drug alone, and MIC AA+B and MIC BA+B denote the concentrations of A and B in the drug combination). FICI = (MIC AA+B/MIC A) + (MIC BA+B/MIC B). With FICI ≤ 0.5, the combination of antibiotics is considered as a synergistic effect, 0.5 < FICI ≤ 1 indicates additivity, FICI > 1 indicates indifference. […]
Supplementary Figure 5: Fraction Inhibitory Concentration Index (FICI) values obtained from checkerboard assays between control peptides 1-4 and penicillin G. The peptide sequences were obtained by introducing proline mutations in TEM3.2 as follows: Pro1 […]
([…]), Pro2 ([…]), Pro3
([…]) and Pro4 ([…]). Each of the five dots […]
per condition indicates an independent experiment of the measurement consisting of 96 datapoints. FICI values below 0.5 indicate synergy (shaded in green). Values between 0.5 and 1.0 indicate additivity (shaded in yellow) and values greater than 1 indicate indifference (shaded in red) between the combined substances. […]

E. coli strain UZ_TEM104 [1] = conditions: broth microdilution, MHB, overnight 37 °C, peptide alone
Excerpt: Pept-Ins consist of a tandem repeat of the APR, each instance flanked by charged amino acids for solubility and separated by a short peptide linker[20],[21],[24] (Fig. 3A). Previous work has shown that good bacterial uptake can be achieved using one positively charged arginine residue on the N-terminal side of each APR in the tandem and two arginine residues on the C-terminal side[20],[21]. […] As before, we employed a single Pro residue as a linker between the APRs and focused on an APR length of seven, extending shorter APRs to this length by incorporating flanking amino acids unless they were obvious aggregation breakers (Arg, Lys, Asp, Glu or Pro, see Table 1).
Determination of MIC values was performed using the broth microdilution method according to the EUCAST guideline, which was performed in 96-well polystyrene flat-bottom microtiter plates (BD Biosciences). Briefly, a single colony was inoculated into 5 mL Difco™ Mueller–Hinton Broth (BD Biosciences Ref 275730) and grown to the end-exponential growth phase in a shaking incubator at 37 °C. Cultures were subsequently diluted to a MacFarland (0.5 optical density) to reach 10^6 CFU/mL in fresh MHB medium. 50 µl of different concentrations of peptides ranging from 128 to 2 µg/mL were serially diluted to the sterile 96-well plate in MHB. 50 µL of the diluted bacteria in MHB were next pipetted into 96-well plates to reach the final volume of 100 µL. The bacteria grown with the maximum concentration of carrier and medium were considered positive and negative controls, respectively. The plates were statically incubated overnight at 37 °C to allow bacterial growth. OD was measured at 590 nm using a multipurpose ultraviolet–visible plate reader, and the absorbance of the bacterial growth was measured using an absorbance reader.

E. coli strain UZ_TEM104 [2] = assay: microbe, parasite or virus in culture; assay type: cell-based, Escherichia coli
E. coli TEM-30 = assay type: cell-based, Escherichia coli; conditions: for Interoretation: E. coli TEM-30; for Interpretation: VITEK 2 AST card
Experimental: (§1) Beta-lactamase clinical samples were collected from University Hospitals Leuven and tested for ESBL production using the disk diffusion method. The beta-lactamase reference isolates were purchased from International Health Management Associates (IHMA). Bacterial strains were cultivated in Mueller–Hinton Broth (MHB, Difco) at 37 °C. Whenever required, growth media were supplemented with appropriate antibiotics to the medium or plates (kanamycin 30 µg/mL, L-arabinose 0.5 mg/mL, and IPTG […]). Escherichia coli BL21 (ThermoFisher Scientific, Belgium) was used for cloning and plasmid amplification. For the selection of antibiotic resistant colonies, E. coli carrying plasmids was grown in LB agar plates supplemented with the relevant antibiotic. Bacterial CFU counting was done on blood agar plates (BD Biosciences, Belgium) or MHA agar plates. Species identification and antibiograms for all clinical isolates were performed using MALDI-Tof and VITEK® 2 automated system (BioMérieux, France).
(§2) Khodaparast et al Supplementary data
(§3) study. […] Abbreviations: S,
(§4) susceptible; I, intermediate; R, resistant.

E. coli NDM5b = assay: VITEK 2 AST antimicrobial susceptibility testing; assay type: cell-based, Escherichia coli; conditions: for Interoretation: E. coli NDM5b; for Interpretation: VITEK 2 AST card
Experimental: as §1, §2, §3, §4

E. coli TEM-206 = assay: VITEK 2 AST antimicrobial susceptibility testing; assay type: cell-based, Escherichia coli; conditions: for Interoretation: E. coli TEM-206; for Interpretation: VITEK 2 AST card
Experimental: as §1, §2, §3, §4

E. coli NDM5a = assay: VITEK 2 AST antimicrobial susceptibility testing; assay type: cell-based, Escherichia coli; conditions: for Interoretation: E. coli NDM5a; for Interpretation: VITEK 2 AST card
Experimental: as §1, §2, §3, §4

E. coli SHV1 (APHA) = assay: VITEK 2 AST antimicrobial susceptibility testing; assay type: cell-based, Escherichia coli; conditions: for Interoretation: E. coli SHV154; for Interpretation: VITEK 2 AST card
Experimental: as §1, §2, §3, §4

E. coli TEM-16 = assay: VITEK 2 AST antimicrobial susceptibility testing; assay type: cell-based, Escherichia coli; conditions: for Interoretation: E. coli TEM-16; for Interpretation: VITEK 2 AST card
Experimental: as §1, §2, §3, §4

E. coli TEM-104 = assay: VITEK 2 AST antimicrobial susceptibility testing; assay type: cell-based, Escherichia coli; conditions: for Interoretation: E. coli TEM-104; for Interpretation: VITEK 2 AST card
Experimental: as §1, §2, §3, §4

E. coli TEM-148 = assay: VITEK 2 AST antimicrobial susceptibility testing; assay type: cell-based, Escherichia coli; conditions: for Interoretation: E. coli TEM-148; for Interpretation: VITEK 2 AST card
Experimental: as §1, §2, §3, §4

[3] = E. coli UZ_TEM104, concentration of additive 50 (mg/mL [sic])
[4] = in the presence of additive (peptide or tazobactam) at fixed 50 μg/mL

Ac-RLTPFPHNRRPRLTPFPRQRR-NH2 [Pro4]
FICi values (E. coli; Replicate1): 2
FICi values (E. coli; Replicate2): 2
FICi values (E. coli; Replicate3): 2
FICi values (E. coli; Replicate4): 2

Ac-RLLLTTIGRRPRLLLTTIGRR-NH2 [TEM2.0]
MIC peptide (E. coli strain UZ_TEM104 [1]): >0.1 mg/mL
MIC penicillin (E. coli strain UZ_TEM104 [2]; [3]): 800 mg/mL
MIC penicillin (E. coli strain UZ_TEM104 [2]; [4]): 0.8 mg/mL

Ac-RIVVIYTTRRPRIVVIYTTRR-NH2 [TEM7.0]
MIC peptide (E. coli strain UZ_TEM104 [1]): >0.1 mg/mL
MIC penicillin (E. coli strain UZ_TEM104 [2]; [3]): 1600 mg/mL
MIC penicillin (E. coli strain UZ_TEM104 [2]; [4]): 1.6 mg/mL

Ac-RPTPFLHNRRPRPTPFLRQRR-NH2 [Pro3]
FICi values (E. coli; Replicate1): 2
FICi values (E. coli; Replicate2): 2
FICi values (E. coli; Replicate3): 2
FICi values (E. coli; Replicate4): 2

Ac-RLPPFLHNRRPRLPPFLRQRR-NH2 [Pro2]
FICi values (E. coli; Replicate1): 0.75
FICi values (E. coli; Replicate2): 0.625
FICi values (E. coli; Replicate3): 0.67
FICi values (E. coli; Replicate4): 0.71

Ac-RPTAPLHNRRPRPTAPLRQRR-NH2 [Pro1]
FICi values (E. coli; Replicate1): 2
FICi values (E. coli; Replicate2): 2
FICi values (E. coli; Replicate3): 2
FICi values (E. coli; Replicate4): 2

Ac-RLTAFLHNRRPRLTAFLHNRR-NH2 [TEM3.0]
MIC peptide (E. coli strain UZ_TEM104 [1]): >0.1 mg/mL

Ac-RLLTLASRRPRLLTLASRR-NH2 [TEM4.0]
MIC peptide (E. coli strain UZ_TEM104 [1]): 0.1 mg/mL
MIC penicillin (E. coli strain UZ_TEM104 [2]; [3]): 1600 mg/mL
MIC penicillin (E. coli strain UZ_TEM104 [2]; [4]): 1.6 mg/mL

Ac-RAGWFIARRPRAGWFIARR-NH2 [TEM5.0]
MIC peptide (E. coli strain UZ_TEM104 [1]): 0.1 mg/mL
MIC penicillin (E. coli strain UZ_TEM104 [2]; [3]): 1600 mg/mL
MIC penicillin (E. coli strain UZ_TEM104 [2]; [4]): 1.6 mg/mL

Ac-RGIIAALGRRPRGIIAALGRR-NH2 [TEM6.0]
MIC peptide (E. coli strain UZ_TEM104 [1]): >0.1 mg/mL
MIC penicillin (E. coli strain UZ_TEM104 [2]; [3]): 1600 mg/mL
MIC penicillin (E. coli strain UZ_TEM104 [2]; [4]): 1.6 mg/mL

CC(=O)N[C@@H](CCCNC(=N)N)C(=O)N[C@@H](Cc1ccccc1)C(=O)N[C@@H](Cc1ccccc1)C(=O)N[C@@H](C)C(=O)N[C@@H](C)C(=O)N[C@@H](Cc1ccccc1)C(=O)N[C@@H](CS)C(=O)N[C@@H](CC(C)C)C(=O)N[C@@H](CCCNC(=N)N)C(=O)N[C@@H](CCCNC(=N)N)C(=O)N1CCC[C@H]1C(=O)N[C@@H](CCCNC(=N)N)C(=O)N[C@@H](Cc1ccccc1)C(=O)N[C@@H](Cc1ccccc1)C(=O)N[C@@H](C)C(=O)N[C@@H](C)C(=O)N[C@@H](Cc1ccccc1)C(=O)N[C@@H](CS)C(=O)N[C@@H](CC(C)C)C(=O)N[C@@H](CCCNC(=N)N)C(=O)N[C@@H](CCCNC(=N)N)C(N)=O [TEM1.0] (Ac-RFFAAFCLRRPRFFAAFCLRR-NH2)
MIC peptide (E. coli strain UZ_TEM104 [1]): >0.1 mg/mL
MIC penicillin (E. coli strain UZ_TEM104 [2]; [3]): 1600 mg/mL (≈ 594 mM)
MIC penicillin (E. coli strain UZ_TEM104 [2]; [4]): 1.6 mg/mL

Piperacillin / tazobactam
Interoretation (E. coli TEM-30): *R
Interpretation (E. coli TEM-30): *R
Interoretation (E. coli NDM5b): R
Interpretation (E. coli NDM5b): R
Interoretation (E. coli TEM-206): *R
Interpretation (E. coli TEM-206): *R
Interoretation (E. coli NDM5a): R
Interpretation (E. coli NDM5a): R
Interoretation (E. coli SHV1 (APHA)): R
Interpretation (E. coli SHV1 (APHA)): R
Interoretation (E. coli TEM-16): *R
Interpretation (E. coli TEM-16): *R
Interoretation (E. coli TEM-104): *I
Interpretation (E. coli TEM-104): *I
Interoretation (E. coli TEM-148): *R
Interpretation (E. coli TEM-148): *R

CO/N=C(\C(=O)N[C@@H]1C(=O)N2C(C(=O)OC(C)OC(C)=O)=C(COC(N)=O)CS[C@H]12)c1ccco1 (stereo partly shown) [Cefuroxime Axetil]
Interoretation (E. coli TEM-30): R
Interpretation (E. coli TEM-30): R
Interoretation (E. coli NDM5b): R
Interpretation (E. coli NDM5b): R
Interoretation (E. coli TEM-206): R
Interpretation (E. coli TEM-206): R
Interoretation (E. coli NDM5a): R
Interpretation (E. coli NDM5a): R
Interoretation (E. coli SHV1 (APHA)): R
Interpretation (E. coli SHV1 (APHA)): R
Interoretation (E. coli TEM-16): R
Interpretation (E. coli TEM-16): R
Interoretation (E. coli TEM-104): S
Interpretation (E. coli TEM-104): S
Interoretation (E. coli TEM-148): R
Interpretation (E. coli TEM-148): R

NC[C@H]1O[C@H](O[C@H]2[C@H](O)[C@@H](O[C@H]3O[C@H](CO)[C@@H](O)[C@H](N)[C@H]3O)[C@H](N)C[C@@H]2N)[C@H](N)C[C@@H]1O [Tobramycin]
Interoretation (E. coli TEM-30): *R
Interpretation (E. coli TEM-30): *R
Interoretation (E. coli NDM5b): S
Interpretation (E. coli NDM5b): S
Interoretation (E. coli TEM-206): S
Interoretation (E. coli NDM5a): R
Interpretation (E. coli NDM5a): R
Interoretation (E. coli SHV1 (APHA)): *R
Interpretation (E. coli SHV1 (APHA)): *R
Interoretation (E. coli TEM-16): S
Interpretation (E. coli TEM-16): S
Interoretation (E. coli TEM-104): S
Interpretation (E. coli TEM-104): S
Interoretation (E. coli TEM-148): S
Interpretation (E. coli TEM-148): S
